The target in one experiment is USP46/UAF1 (Homo sapiens, UniProt P62068). Briefly: K63-linked diubiquitin cleavage assay, USP46/UAF1. The experiment is classed as biochemical. To be noted: for IC50 USP46/UAF1: K63-linked diubiquitin substrate, NI = no significant inhibition at 114 μM.
For another experiment, the target named is T1, UCH-L1 (Homo sapiens, UniProt P09936).
T1 sequence (P09936 1-223): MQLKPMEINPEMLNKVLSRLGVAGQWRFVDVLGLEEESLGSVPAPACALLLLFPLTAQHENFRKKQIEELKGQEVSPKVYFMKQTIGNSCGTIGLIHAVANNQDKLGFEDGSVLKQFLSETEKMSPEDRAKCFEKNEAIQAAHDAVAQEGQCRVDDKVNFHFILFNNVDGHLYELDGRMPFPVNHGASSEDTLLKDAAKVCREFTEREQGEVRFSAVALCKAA
Briefly: Ub-Rho assay, UCH-L1. In kind it is biochemical.

The next experiment has as its target T2, UCH-L3 (Homo sapiens, UniProt P15374).
T2 sequence (P15374 1-230): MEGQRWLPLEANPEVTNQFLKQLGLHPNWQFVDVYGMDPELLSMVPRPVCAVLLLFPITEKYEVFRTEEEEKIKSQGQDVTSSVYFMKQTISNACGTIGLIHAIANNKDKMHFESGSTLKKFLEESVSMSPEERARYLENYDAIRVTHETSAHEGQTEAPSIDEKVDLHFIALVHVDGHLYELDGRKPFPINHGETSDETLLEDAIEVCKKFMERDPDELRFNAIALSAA
Briefly: Ub-Rho assay, UCH-L3. The experiment is classed as biochemical.

In the next experiment the target is T3, caspase-1 (Homo sapiens, UniProt P29466).
T3 sequence (P29466 120-297 limits assumed): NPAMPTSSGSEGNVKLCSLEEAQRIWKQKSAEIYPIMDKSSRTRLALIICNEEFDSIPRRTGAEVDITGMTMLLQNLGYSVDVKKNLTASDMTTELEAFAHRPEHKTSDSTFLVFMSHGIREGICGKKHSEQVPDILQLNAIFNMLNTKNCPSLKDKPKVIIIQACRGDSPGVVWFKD
T3 sequence (P29466 317-404 limits assumed): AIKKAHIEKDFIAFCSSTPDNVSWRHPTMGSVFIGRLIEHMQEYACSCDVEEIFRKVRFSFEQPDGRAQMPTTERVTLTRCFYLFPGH
As to the kind of experiment: cysteine protease selectivity, caspase-1. The experiment is classed as biochemical.

The next experiment has as its target T4, caspase-3 (Homo sapiens, UniProt P42574).
T4 sequence (P42574 29-175 limits assumed): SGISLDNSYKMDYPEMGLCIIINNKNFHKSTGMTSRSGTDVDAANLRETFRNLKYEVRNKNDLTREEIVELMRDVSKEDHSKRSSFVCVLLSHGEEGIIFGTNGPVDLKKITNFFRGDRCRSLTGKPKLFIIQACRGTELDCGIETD
T4 sequence (P42574 176-277 limits assumed): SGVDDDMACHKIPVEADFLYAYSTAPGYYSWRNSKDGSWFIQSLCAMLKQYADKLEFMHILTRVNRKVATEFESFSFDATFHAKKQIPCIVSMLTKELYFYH
Briefly: cysteine protease selectivity, caspase-3. The experiment is classed as biochemical.

The next experiment addresses T5, USP2 (Homo sapiens, UniProt O75604).
T5 sequence (O75604 1-605): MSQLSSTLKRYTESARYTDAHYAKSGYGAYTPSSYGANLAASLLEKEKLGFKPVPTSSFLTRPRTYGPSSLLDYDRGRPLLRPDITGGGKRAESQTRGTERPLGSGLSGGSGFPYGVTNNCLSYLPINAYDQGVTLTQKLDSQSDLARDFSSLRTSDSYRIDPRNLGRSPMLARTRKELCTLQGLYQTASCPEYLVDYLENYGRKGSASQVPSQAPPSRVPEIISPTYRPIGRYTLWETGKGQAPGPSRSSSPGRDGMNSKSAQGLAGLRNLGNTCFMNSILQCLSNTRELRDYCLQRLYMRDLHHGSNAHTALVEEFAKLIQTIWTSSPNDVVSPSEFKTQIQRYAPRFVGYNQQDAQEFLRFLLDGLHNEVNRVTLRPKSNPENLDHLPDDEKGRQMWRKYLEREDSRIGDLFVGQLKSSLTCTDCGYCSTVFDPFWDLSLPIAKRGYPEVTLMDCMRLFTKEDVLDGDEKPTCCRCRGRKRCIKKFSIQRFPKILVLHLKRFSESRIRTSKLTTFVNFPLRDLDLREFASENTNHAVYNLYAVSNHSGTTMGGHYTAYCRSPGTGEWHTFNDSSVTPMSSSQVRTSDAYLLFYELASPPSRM
As to the kind of experiment: K63-linked diubiquitin cleavage assay, USP2. The settings on record: for IC50 USP2: NI = no significant inhibition at 114 μM.

The next experiment addresses T6, USP5 (Homo sapiens, UniProt P45974).
T6 sequence (P45974 1-858): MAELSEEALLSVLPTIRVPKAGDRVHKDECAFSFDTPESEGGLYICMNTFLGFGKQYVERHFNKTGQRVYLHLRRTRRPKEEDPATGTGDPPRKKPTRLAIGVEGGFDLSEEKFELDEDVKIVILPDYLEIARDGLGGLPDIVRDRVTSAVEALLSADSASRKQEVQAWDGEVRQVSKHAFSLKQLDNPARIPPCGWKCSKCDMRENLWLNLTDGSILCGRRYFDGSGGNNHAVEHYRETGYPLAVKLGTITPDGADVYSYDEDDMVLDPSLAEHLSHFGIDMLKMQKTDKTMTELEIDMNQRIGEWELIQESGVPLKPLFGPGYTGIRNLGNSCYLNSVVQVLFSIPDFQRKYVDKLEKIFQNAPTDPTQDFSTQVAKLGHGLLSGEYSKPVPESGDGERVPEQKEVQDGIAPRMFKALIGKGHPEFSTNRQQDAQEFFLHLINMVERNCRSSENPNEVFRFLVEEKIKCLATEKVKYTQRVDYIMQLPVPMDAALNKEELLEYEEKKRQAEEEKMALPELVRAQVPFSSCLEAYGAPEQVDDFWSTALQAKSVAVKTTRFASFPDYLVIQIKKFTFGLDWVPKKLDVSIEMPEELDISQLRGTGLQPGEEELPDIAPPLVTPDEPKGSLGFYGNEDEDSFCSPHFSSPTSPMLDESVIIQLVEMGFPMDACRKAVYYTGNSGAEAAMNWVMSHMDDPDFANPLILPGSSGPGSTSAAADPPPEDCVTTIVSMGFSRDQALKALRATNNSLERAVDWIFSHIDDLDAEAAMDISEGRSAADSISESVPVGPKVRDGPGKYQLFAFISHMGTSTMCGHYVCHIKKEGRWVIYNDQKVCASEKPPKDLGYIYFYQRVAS
As to the kind of experiment: K63-linked diubiquitin cleavage assay, USP5. To be noted: K63-linked diubiquitin substrate; NI = no significant inhibition at 114 μM.

[1] abbreviates: K63-linked diubiquitin substrate.

The text below walks through data of article PMC3344384 (Chemistry & biology, 2011).

The structures appear in SMILES notation.

Chain of USP46/UAF1 (P62068 whole entry): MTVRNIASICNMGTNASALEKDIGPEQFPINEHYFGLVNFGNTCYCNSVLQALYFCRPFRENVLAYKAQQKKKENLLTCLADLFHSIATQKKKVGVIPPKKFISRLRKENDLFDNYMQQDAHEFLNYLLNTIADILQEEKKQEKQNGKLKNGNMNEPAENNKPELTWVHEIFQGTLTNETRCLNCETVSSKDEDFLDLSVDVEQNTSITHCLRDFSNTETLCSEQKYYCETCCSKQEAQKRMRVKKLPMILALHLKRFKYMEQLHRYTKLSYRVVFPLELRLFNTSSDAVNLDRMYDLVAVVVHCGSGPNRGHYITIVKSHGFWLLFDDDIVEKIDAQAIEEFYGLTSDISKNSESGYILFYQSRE
Chain of USP46/UAF1 (Q8TAF3 whole entry partner): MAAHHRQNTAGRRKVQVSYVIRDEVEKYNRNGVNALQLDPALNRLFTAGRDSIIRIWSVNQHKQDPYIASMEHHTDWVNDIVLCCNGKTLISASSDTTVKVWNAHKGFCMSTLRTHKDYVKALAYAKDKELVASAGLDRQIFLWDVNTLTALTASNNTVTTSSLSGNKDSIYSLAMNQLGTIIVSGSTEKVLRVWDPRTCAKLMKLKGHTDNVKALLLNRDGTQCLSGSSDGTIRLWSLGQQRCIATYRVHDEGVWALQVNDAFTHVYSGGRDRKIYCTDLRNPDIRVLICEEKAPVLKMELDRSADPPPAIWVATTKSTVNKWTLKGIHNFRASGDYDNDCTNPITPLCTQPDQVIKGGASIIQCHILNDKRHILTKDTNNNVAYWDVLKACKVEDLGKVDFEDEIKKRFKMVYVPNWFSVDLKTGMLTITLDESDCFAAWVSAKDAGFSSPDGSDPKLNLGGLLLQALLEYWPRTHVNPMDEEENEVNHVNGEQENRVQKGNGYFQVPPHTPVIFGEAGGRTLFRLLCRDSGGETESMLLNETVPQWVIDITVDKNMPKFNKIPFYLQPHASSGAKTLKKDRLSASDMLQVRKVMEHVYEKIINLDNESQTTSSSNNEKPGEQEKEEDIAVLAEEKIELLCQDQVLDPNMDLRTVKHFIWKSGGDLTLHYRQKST

Regarding `CC(C)(Sc1ccc(CCN(CCCCC2CCCCC2)C(=O)NC2CCCCC2)cc1)C(=O)O` [GW7647], the IC50 was 12 ± 1 µM on USP46/UAF1; over 200 µM against UCH-L1; over 200 µM at UCH-L3; 42 µM against caspase-1; over 250 µM at caspase-3; over 114 µM against USP2. At USP2 (setting [1]), the “IC50 for USP2, fold higher than that for USP1/UAF1” value is “more than 23 fold”. The “IC50 USP5” value at USP5 is “did not inhibit”.
Turning to `O=c1[nH]c2ccccc2n1C1CCN(CCCC(c2ccc(F)cc2)c2ccc(F)cc2)CC1` [Pimozide, pimozide], at USP46/UAF1, the “IC50 USP46/UAF1” value is given as “did not inhibit”. For the same compound, the IC50 on UCH-L1 is over 500 µM; on UCH-L3 it was over 500 µM; on caspase-1, over 250 µM; against caspase-3 it was over 250 µM. In addition, the “IC50 USP2” value on USP2 (setting [1]) is listed as “No inhibition”. The “IC50 USP5” value on USP5 is on record as “No inhibition”.
With `CN1CCN(CCCN2c3ccccc3Sc3ccc(C(F)(F)F)cc32)CC1` [Trifluoperazine, trifluoperazine], the “IC50 USP46/UAF1” value against USP46/UAF1 is “did not inhibit”. For the same compound, the IC50 against UCH-L1 was over 500 µM; at UCH-L3, over 500 µM; on caspase-1 it was over 250 µM; against caspase-3, over 250 µM. Moreover, the “IC50 USP2” value on USP2 (setting [1]) is on record as “no inhibition”. For the same compound, on USP5, the “IC50 USP5” value is given as “no inhibition”.
In the case of `OCCN1CCN(CCC=C2c3ccccc3Sc3ccc(C(F)(F)F)cc32)CC1` [Flupenthixol, flupenthixol], the “IC50 USP46/UAF1” value against USP46/UAF1 is given as “did not inhibit”. In addition, the half-inhibitory concentration (IC50) on UCH-L1 was over 500 µM; on UCH-L3 it was over 500 µM; on caspase-1 it was over 250 µM; against caspase-3, over 250 µM. Further, the “IC50 USP2” value at USP2 (setting [1]) is “no inhibition”. Also, on USP5, the “IC50 USP5” value was “no inhibition”.

The IC50 is the concentration needed to halve the response being measured. High values mean a need for much substance, low ones inhibition by little substance.
